From patent US20190374508A1, “THERAPEUTIC TOPICAL COMPOSITIONS OF APREMILAST” (SARUDBHAVA FORMULATIONS PRIVATE LIMITED, priority 2017, published 2019)

Test system: TPA induced ear inflammation
Assay: 12-O-Tetradecanoylphorbol-13-Acetate (TPA) induced ear inflammation in mice
Format: in vivo, Male C57BL/6 mice
Conditions: for dose dependence of efficacy: topical test formulation
Procedure: Efficacy of the test formulations was determined in studies using 12-O-Tetradecanoylphorbol-13-Acetate (TPA) induced ear inflammation in mice. Excessive proliferation of keratinocytes is a characteristic of psoriasis, and this cell type is a well reported target of therapy for this disease. In the present study, chronic skin inflammation was induced by repeated topical application of TPA, which is recognized by prolonged skin reaction & epidermal hyperplasia. The animal model used was Male C57BL/6 mice 6 to 8 weeks of age. Protocol: • a) Animals were randomized based on body weight and divided into six different groups consisting of 8 animals. • b) 20 μL of TPA solution containing 2 μg of TPA in vehicle (2% DMSO and 98% methanol) was applied topically on both ventral and dorsal side (10 μL each side) of the right ear of all the animals except group Group G1 on day 0, 2, 4, 7 and 9. • c) Group G1 and Group G2 were topically treated with placebo gel formulation on right ear. • d) Groups G3, G4 and G5 were topically treated with test compositions comprising apremilast (2% w/w, 4% w/w and 10% w/w concentration). • e) Group G6 was topically treated with 0.1% Betamethasone valerate cream. • f) All the formulations were uniformly applied, 25 mg each (50 mg per animal), in anterior and posterior region of the right ear daily from day 0 to day 10.

## CCOc1cc([C@@H](CS(C)(=O)=O)N2C(=O)c3cccc(NC(C)=O)c3C2=O)ccc1OC [apremilast, N-[2-[(1S)-1-(3-ethoxy-4-methoxyphenyl)-2-(methylsulfonyl)ethyl]-2,3-dihydro-1,3-dioxo-1H-isoin-dol-4-yl]acetamide]
Daily topical application of test formulation on right ear, day 0 to day 10, tested concentrations 2%, 4% and 10% apremilast
  efficacy against ear inflammation: effective against ear inflammation
Topical test formulation containing 2% apremilast
  reduction on ear edema: poor reduction on ear edema which tapered off by day-9
10% concentration of apremilast
  dose dependence of efficacy: saturation of efficacy
Between 2% and 4% apremilast
  dose dependence of efficacy: Dose-dependent increase in efficacy
